# Measurements as given in US6600035B1, “6-(substituted methylene) penems and intermediates” (SMithKline Beecham p.l.c., priority 1992, dated 2003).
# pIC50: −log10 of the molar value.
# Legend:
# TEM-1 β-lactamase enzyme = TEM-1 β-lactamase enzyme (Escherichia coli, UniProt P62593); assay: β-lactamase inhibitory activity: 50% inhibition of β-lactam hydrolysis, TEM-1; format: biochemical
# P99 β-lactamase enzyme = P99 β-lactamase enzyme (Enterobacter cloacae, UniProt P05364); assay: biochemical
# BC II β-lactamase enzyme = BC II β-lactamase enzyme (Bacillus cereus, UniProt P04190); assay: β-lactamase inhibitory activity: 50% inhibition of β-lactam hydrolysis, BC II; format: biochemical
# Sequence of BC II β-lactamase enzyme (P04190 31-257): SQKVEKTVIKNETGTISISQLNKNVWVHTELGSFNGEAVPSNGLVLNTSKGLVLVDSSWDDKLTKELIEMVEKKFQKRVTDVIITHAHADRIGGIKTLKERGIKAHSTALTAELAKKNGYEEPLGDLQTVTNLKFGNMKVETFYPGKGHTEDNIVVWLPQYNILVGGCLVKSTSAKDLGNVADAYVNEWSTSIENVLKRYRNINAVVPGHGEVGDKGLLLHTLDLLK
# [1] = target: P. mirabilis β-lactamase enzyme; assay: β-lactamase inhibitory activity: 50% inhibition of β-lactam hydrolysis, P. mirabilis; format: biochemical; conditions: read-out: I50 (concentration required to achieve 50% inhibition of β-lactam hydrolysis)
# PC1 β-lactamase enzyme = PC1 β-lactamase enzyme (Staphylococcus aureus, UniProt P00807); assay: biochemical
# Sequence of PC1 β-lactamase enzyme (P00807 25-281): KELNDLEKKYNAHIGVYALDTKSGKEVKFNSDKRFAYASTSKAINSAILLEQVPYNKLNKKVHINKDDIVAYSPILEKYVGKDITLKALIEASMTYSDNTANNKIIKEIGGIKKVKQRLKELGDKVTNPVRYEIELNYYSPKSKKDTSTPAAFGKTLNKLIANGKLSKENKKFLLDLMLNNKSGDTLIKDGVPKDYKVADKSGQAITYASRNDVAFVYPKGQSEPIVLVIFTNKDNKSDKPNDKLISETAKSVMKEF
# OXA-1 β-lactamase enzyme = OXA-1 β-lactamase enzyme (Escherichia coli, UniProt P13661); assay: biochemical
# Sequence of OXA-1 β-lactamase enzyme (P13661 26-276): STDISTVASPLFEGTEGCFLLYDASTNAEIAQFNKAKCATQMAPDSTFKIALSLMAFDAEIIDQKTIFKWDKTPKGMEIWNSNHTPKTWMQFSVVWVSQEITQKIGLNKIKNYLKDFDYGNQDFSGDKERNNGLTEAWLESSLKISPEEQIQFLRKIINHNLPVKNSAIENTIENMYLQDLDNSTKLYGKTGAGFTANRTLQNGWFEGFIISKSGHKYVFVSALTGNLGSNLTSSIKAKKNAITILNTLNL
# Sequence of P99 β-lactamase enzyme (P05364 21-381): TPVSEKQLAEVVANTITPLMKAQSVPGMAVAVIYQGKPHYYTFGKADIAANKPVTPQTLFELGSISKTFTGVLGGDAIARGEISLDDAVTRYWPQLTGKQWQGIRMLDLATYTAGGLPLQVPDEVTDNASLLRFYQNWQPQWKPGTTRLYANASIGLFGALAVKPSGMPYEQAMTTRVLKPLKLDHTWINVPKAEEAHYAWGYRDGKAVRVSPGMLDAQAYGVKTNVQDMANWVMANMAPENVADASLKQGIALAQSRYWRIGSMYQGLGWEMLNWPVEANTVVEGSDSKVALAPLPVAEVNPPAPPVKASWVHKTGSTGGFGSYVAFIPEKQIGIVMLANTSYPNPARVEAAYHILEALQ
# Sequence of TEM-1 β-lactamase enzyme (P62593 24-286 limits assumed): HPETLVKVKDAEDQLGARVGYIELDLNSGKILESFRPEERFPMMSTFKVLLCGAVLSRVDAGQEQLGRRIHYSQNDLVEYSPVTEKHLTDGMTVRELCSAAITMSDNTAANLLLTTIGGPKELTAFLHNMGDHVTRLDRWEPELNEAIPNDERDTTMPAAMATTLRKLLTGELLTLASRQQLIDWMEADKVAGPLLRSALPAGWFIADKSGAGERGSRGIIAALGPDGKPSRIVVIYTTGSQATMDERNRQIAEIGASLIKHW
smiles,measurement,setting,value
"O=C(O)C1=CS[C@@H]2/C(=C\c3cn4c(n3)SCC4)C(=O)N12 [Example 1, Sodium (5R)-6[(Z)-(2,3-dihydroimidazo[2,1-b]thiazol-6-yl)methylene]-penem-3-carboxylate]",pIC50,TEM-1 β-lactamase enzyme,8.00
same,pIC50,P99 β-lactamase enzyme,> 8.30
same,pIC50,BC II β-lactamase enzyme,4.31
same,pIC50,[1],8.00
same,pIC50,PC1 β-lactamase enzyme,8.00
same,pIC50,OXA-1 β-lactamase enzyme,8.00
